# In patent US12485114B2, “Materials and methods useful to induce cancer cell death via methuosis or autophagy or a combination thereof” (The University of Toledo, priority 2017, dated 2025):
# Key:
# [1] = tested on: normal epithelial colon cells (CRL-1459); test: Morphological assessment of vacuolization in normal cells; type: cell-based; conditions: CRL-1459 normal cells
# Description: The methuophagy inducing activities of BAPT-27 were also prominent in different colon cancer cell lines with different genetic profiles. […] (FIG. 42). However, the vacuoles formation was not prominent in normal epithelial colon cells (CRL-1459). (FIG. 42).
# [2] = tested on: colon, pancreatic, ovarian, lung, and prostate cancer cell lines; test: Vacuole accumulation in cancer cell lines; type: cell-based
# Description: The vacuoles are originated from macropinocytosomes as confirmed by extracellular fluid phase tracers. Vacuolization has been described previously as methuosis. However, the vacuoles induced here combine the characteristics of methuosis, autophagy, enhanced lysosomal activity, and other distinct characteristics.
# [3] = tested on: resistant colon cancer cell lines S1M180; test: Reversal of multidrug resistance, combined with mitoxantrone; type: cell-based
# Description: (§1) The cells became sensitive to the cytotoxicity of mitoxantrone when combined with BAPT-27. Further, BAPT-27 induced death in apoptosis resistant cell lines including colon cancer cell lines that are missing important pro-apoptotic genes Bax and Bak using well established models (HCT116, HCT116 Bax −/−, HCT116 Bak −/−, HCT116 Bax/Bak−/−). Accordingly, BAPT-27 represents a family of compounds that induce cell death in sensitive and resistant cancers, as well as those cancers that are refractory to death by conventional apoptosis inducing anticancer agents.
# (§2) (FIG. 46). NSCLC cells resistant to apoptosis are also sensitive to the activities of BAPT-27.
# [4] = tested on: resistant lung cancer cell lines H460-MX20; test: as above; type: cell-based
# Description: as §1, §2
# [5] = tested on: C57BL/6 mice; test: Safety studies in C57BL/6 mice; type: in vivo
# Method: FIG. 53A: C57BL/6J mice (8-10 weeks old) were treated intraperitoneally with indicated concentration of BAPT-27 or vehicle (saline) for 14 days. At the end of 14 days, blood was collected in heparin-coated tubes for blood chemistry analysis using abaxis veterinary chemistry analyzer (VETSCAN vs2).
# FIG. 53B: Representative immunohistochemical slides are shown for kidney, liver, heart and brain for C57BL/6mice treated intraperitoneally with vehicle (saline) or BAPT-27 at 86.6 mg/kg. The whole tissue section and 10× magnification slides are shown.
# [6] = tested on: zebrafish; test: Safety in zebrafish; type: in vivo; conditions: 100 μM
# Method: The safety of BAPT-27 was studied in zebrafish. BAPT-27 is safe in zebrafish even at a very high concentration of 100 μM. The fish were healthy with no changes in their morphology, swim positions, or their cardiac parameters. (FIG. 52).
# [7] = tested on: HCT116 cells; test: Electron microscopy of treated cells; type: cell-based
# Method: The vacuoles are indicated by V in FIG. 31. The single membranes of the vacuoles are destroyed (indicated by arrows in FIG. 31), allowing small vacuoles to merge, forming bigger vacuoles.
# The vacuoles are fluid filled with traces of membranes due to vacuoles fusion events. The nuclei are healthy with no signs of chromatin condensation and are unaffected at even a high concentration (30 μM). However, as the vacuoles coalesce and grow in size, the nuclei are pushed on the edges of the cells. The nuclei are indicated by white N, and the vacuoles are indicated by black arrows, in FIG. 32.
# (FIG. 38). The ER is indicated by black arrows.
# [8] = tested on: HCT116, HCT116 Bax −/−, HCT116 Bak −/−, HCT116 Bax/Bak−/−; test: Death in apoptosis resistant colon cancer cell lines; type: cell-based; conditions: cell lines missing pro-apoptotic genes Bax and Bak
# Description: as §1
# [9] = tested on: lysosomes; test: Lysotracker red dye accumulation; type: cell-based
# [10] = tested on: β-tubulin; test: β-tubulin expression and microtubules dynamics; type: cell-based; set-up: β-tubulin expression levels: dose or concentration left out as unconfirmed
# [11] = tested on: cancer cells; test: Loss of viability and non-apoptotic cell death assessment (nuclei, electron microscopy, annexin, z-VAD-fmk); type: cell-based
# Method: Cells treated with BAPT-27 lose their viability within 72 h. […] Through electron microscopy there were clearly no signs of apoptosis (i.e., cell shrinkage, nuclear condensation, blebbing) seen.
# [12] = tested on: autophagic signaling pathways; test: Autophagy markers and autophagy inhibitors (acridine orange, LC3B, 3-MA, chloroquine); type: cell-based
# Description: BAPT-27 induced vacuoles that combine both methuosis and autophagy characteristics. […] The author mechanism involved in this non-conventional cell death mechanism is a special type of […] that has been termed methuosis. The treatment of cells by BAPT-27 caused the displacement of the cytoplasm by vacuoles derived from macropinosomes. At early time points, the vacuoles are small in size. The small vacuoles then increase in number, and then fuse with each other over time forming larger vacuoles that cover the whole cytoplasm. Eventually, this causes a disturbance of the cell membrane and burst of the cells, release of fluids, detachment of cell, and death. […] Accordingly, alteration in both autophagic and methuosis mechanisms are involved in the BAPT-27 cell death process.
# Without wishing to be bound by theory, it is believed that the mechanism by which BAPT-27 is produces its activities is due to alteration in key signaling pathways and several cellular events: (1) significant activation of macropinocytosis (FIGS. 32-33), and (2) significant alteration in autophagic signaling resulting in the accumulation of autophagic markers such as LC3 II and acridine orange (FIG. 37).
# At 6 h treatment, the vacuoles were tiny and smaller in size in combination compared to BAPT-27 alone. (FIG. 48). […] (FIG. 48).
# [13] = tested on: TFEB-mTOR pathway; test: mTOR, Beclin-1 and LC3B-II autophagy related markers; type: cell-based
# Description: Autophagosome and lysosomal homeostasis is governed by transcription factor EB (TFEB)—mTOR signaling pathways (TFEB-mTOR pathway). […] (FIG. 51A & FIG. 51B & FIG. 51C).
# [14] = cells became sensitive to mitoxantrone in combination
smiles,measurement,setting,value
"Sc1nnc(-c2ccncc2)n1/N=C/c1c[nH]c2ccccc12 [BAPT-27, 4-(((1H-Indol-3-Yl)Methylene)Amino)-5-(Pyridin-4-Yl)-4H-1,2,4-Triazole-3-Thiol]",vacuoles formation,[1],not prominent
same,accumulation of fluid filled-cytoplasmic vacuoles,[2],induces the rapid accumulation of extensive fluid filled-cytoplasmic vacuoles
same,delivery and sensitivity of doxorubicin and mitoxantrone,[3],increase the delivery and enhanced sensitivity
same,reversal of multidrug resistance,[3]; [14],reversed multidrug resistance
same,delivery and sensitivity of doxorubicin and mitoxantrone,[4],increase the delivery and enhanced sensitivity
same,reversal of multidrug resistance,[4]; [14],reversed multidrug resistance
same,safety in mice,[5]; 86.6 mg/kg given intraperitoneally,safe
same,behavioral or phenotypic toxicity,[5]; up to 14 days,no behavioral or phenotypic toxicity
same,"changes in morphology, swim positions, or cardiac parameters",[6],no changes
same,safety in zebrafish,[6],safe
same,formation of single membrane vacuoles (electron microscopy),[7]; 10 μM,extensive formation of single membrane vacuoles
same,state of nuclei (electron microscopy),[7]; high concentration (30 μM),unaffected
same,state of endoplasmic reticulum (electron microscopy),[7]; highest concentration 100 μM,normal and not stressed
same,cell death in apoptosis resistant cell lines,[8],induced death
same,lysotracker red dye inside the formed vacuoles,[9],significant accumulation
same,β-tubulin expression levels,[10],no significant change
same,microtubules dynamics,[10]; 24 h,significant disturbance
same,alteration in the intrinsic apoptotic pathways (proapoptotic and antiapoptotic proteins),[11],no alteration
same,annexin fluorescence,[11],not changed
same,apoptotic changes of nuclei (chromatin condensation or DNA fragmentation),[11],no apoptotic changes
same,protection from death by pan-caspase inhibitor z-VAD-fmk,[11],did not protect the cells from death
same,time to loss of viability,[11]; cells treated with BAPT-27,≤ 72 h
same,cells observed to have died through apoptosis,"[11]; electron microscopy, very high concentration",one in 100 cells
same,block of vacuoles formation by z-VAD,"[11]; z-VAD 100 μM, BAPT-27 10 μM, 24 h and 72 hr",does not block
same,LC3B cleavage and LC3B loci at the borders of the vacuoles,[12],induced the cleavage of LC3B
same,acridine orange in vacuoles (activated acidic compartments),[12],accumulation of acridine orange
same,inhibition of vacuoles formation or cytotoxic effects by autophagy inhibitors 3-MA and chloroquine,[12],did not inhibit
same,block of vacuoles formation by 3-methyl adenine,"[12]; 3-MA 300 μM, BAPT-27 10 μM, 24 h and 72 hr",does not block
same,effect of chloroquine on vacuoles formation,"[12]; CQ 5 μM, BAPT-27 10 μM, 6 h",delay of vacuoles formation
same,effect of chloroquine on vacuoles regaining normal size,"[12]; CQ 5 μM, BAPT-27 10 μM, 24 h",could not prevent
same,Beclin-1 level,[13],increased
same,LC3B-II level,[13],increased
same,mTOR level,[13],significantly downregulated
